Values of other authors, collected in patent US20110171717A1, “METHOD FOR ENHANCING […]” (priority 2006, published 2011).

Tested on: polymerase
Conditions: cited from earlier work; for effect on polymerase activity: known from Weyant et al., BioTechniques 1990

Compound	effect on polymerase activity at low concentration (e.g., 0.01% of SDS)	effect on polymerase activity
CCCCCCCCCCCCOS(=O)(=O)[O-].[Na+] [SDS, Sodium dodecyl sulfate]	inhibit a polymerase activity even at low concentrations	inhibit a polymerase activity
CCCCCCCCCCCC(=O)N(C)CC(=O)[O-].[Na+] [sodium N-lauroyl sarcosinate, N-Lauroylsarcosine-sodium salt]	–	inhibit a polymerase activity
Sodium deoxycholate	–	inhibit a polymerase activity
